Test results taken from US6676932B2, “Ultraviolet absorbent, photostabilizer, ultraviolet ray-absorbing composition, photostabilized composition and external preparation for skin” (Shiseido Co., Ltd., priority 2001, dated 2004).
Each block holds one compound with its values, some of them ahead of it.

Tests used:
Assay type in all cases: physicochemical
[1] = Dye stabilization effect in blend with sequestering agents (Test Examples 212 to 275); details: daylight exposure (80 MJ)
Protocol: Each test sample was prepared for observation of the change of the appearance of each test sample (determined visually) and measurement of the color difference (ΔE) before and after daylight exposure (80 MJ).
(§1) With a spectrophotometer, the color was measured on the Lab coordinate system, to calculate the color difference on the basis of the color before daylight exposure. More specifically, the color difference (ΔE) was calculated on the basis of the measured values (L1, a1, b1) before daylight exposure.

[2] = Dye stabilization effect under daylight exposure (Test Examples 6-91); set-up: key to Δ E: color difference ΔE in Lab vs. color before daylight exposure; key to Appearance (visual determination): ◯: no change; Δ: almost no change; x: change; details: photostabilizer 0.05 wt %, daylight exposure (80 MJ)
Protocol: For observation of the change of the appearance of each test sample (determination based on visual observation) and the measurement of color difference (ΔE) before and after daylight exposure (80 MJ), the test sample was prepared.
as §1

[3] = Drug stabilization effect under daylight exposure (Test Examples 182 to 211); set-up: key to Appearance (visual determination): ◯: no change; Δ: almost no change; x: change; details: photostabilizer 0.05 wt %, daylight exposure (80 MJ); for Remaining ratio (%): liquid chromatography
Protocol: For observation of the change of the appearance of each test sample (determination based on visual observation) and the measurement of the remaining ratio by liquid chromatography before and after daylight exposure (80 MJ), the test sample was prepared.

[4] = Stabilization effect on perfume under daylight exposure (Test Examples 92 to 181); set-up: key: ◯: no change; Δ: almost no change; x: change; details: daylight exposure (80 MJ)
Protocol: Each test sample was prepared for observation of the change of the odor of the test sample (determined by perfume coordinator) before and after daylight exposure (80 MJ).

[5] = dye Green 3 (Fast Green FCF) 0.001, sequestering agent 0.1 alone, photostabilizer 0
[6] = dye Yellow 5 (Sunset Yellow FCF) 0.0001, sequestering agent 0.03 alone, photostabilizer 0
[7] = dye Blue 1 (Brilliant Blue FCF) 0.0001 wt %
[8] = dye Green 3 (Fast Green FCF) 0.001 wt %
[9] = dye Red 227 (Acid Fuchsine D) 0.0001 wt %
[10] = dye Yellow 5 (Sunset Yellow FCF) 0.001 wt %
[11] = dyes Yellow 203 (Quinoline Yellow WS) 0.0001 + Yellow 5 (Sunset Yellow FCF) 0.0001 wt %
[12] = drug Dipotassium glycyrrhizinate 0.05 wt %
[13] = drug L-ascorbic acid 2-glucoside 2.0 wt %
[14] = base perfume Fruity, photostabilizer 0.1 wt %
[15] = natural perfume Nelori oil, photostabilizer 0.1 wt %
[16] = synthetic perfume Limonene oil, photostabilizer 0.05 wt %
[17] = dyes Red 106 (Acid red) 0.00001 + Yellow 203 (Quinoline Yellow WS) 0.0001 wt %
[18] = dyes Red 213 (Rhodamine B) 0.00001 + Blue 1 (Brilliant Blue FCF) 0.00001 wt %
[19] = dyes Red 227 (Acid Fuchsine D) 0.0001 + Yellow 5 (Sunset Yellow FCF) 0.0001 wt %
[20] = dyes Red 401 (Violanin R) 0.0001 + Blue 1 (Brilliant Blue FCF) 0.00001 wt %
[21] = drug dibutylhydroxytoluene 0.01 wt %
[22] = drug dl-α-tocopherol 2-L-ascorbic acid phosphate diester potassium salt 0.01 wt %
[23] = base perfume Muge, photostabilizer 0.05 wt %
[24] = natural perfume Jasmine oil, photostabilizer 0.05 wt %
[25] = synthetic perfume Rose oxide, photostabilizer 0.2 wt %

Compound: sodium polyphosphate
Δ E [1, 5]: 1.75
Δ E [1, 6]: 1.70

Compound: CCCCC(CC)COC(=O)/C=C/c1ccc(OC)cc1 (centres unmarked) [p-Methoxycinnamate octyl, reference compound]
Appearance (visual determination) [2, 7]: x
Δ E [2, 7]: 5.23
Appearance (visual determination) [2, 8]: x
Δ E [2, 8]: 1.64
Appearance (visual determination) [2, 9]: x
Δ E [2, 9]: 1.22
Appearance (visual determination) [2, 10]: x
Δ E [2, 10]: 1.56

Compound: OCCN(CCO)c1cnnc(O)c1 [5-bis(2-hydroxyethyl)amino-3-hydroxypyridazine]
Appearance (visual determination) [2, 7]: ◯
Δ E [2, 7]: 1.29
Appearance (visual determination) [2, 8]: ◯
Δ E [2, 8]: 0.62
Appearance (visual determination) [2, 9]: ◯
Δ E [2, 9]: 0.55
Appearance (visual determination) [2, 10]: ◯
Δ E [2, 10]: 0.65
Appearance (visual determination) [2, 17]: ◯
Δ E [2, 17]: 0.85
odor determination [4, 23]: ◯
odor determination [4, 24]: ◯
odor determination [4, 25]: ◯

Compound: COc1cc(O)c(C(=O)c2ccccc2)cc1S(=O)(=O)[O-].[Na+] [2-Hydroxy-4-methoxybenzophenone-5-sulfonate sodium, reference compound]
Appearance (visual determination) [2, 7]: Δ
Δ E [2, 7]: 1.67
Appearance (visual determination) [2, 8]: Δ
Δ E [2, 8]: 0.74
Appearance (visual determination) [2, 9]: Δ
Δ E [2, 9]: 0.80
Appearance (visual determination) [2, 10]: Δ
Δ E [2, 10]: 0.78

Compound: O=C([O-])CN(CCN(CC(=O)[O-])CC(=O)O)CC(=O)[O-].[Na+].[Na+].[Na+] [ethylenediaminetetraacetate trisodium]
Δ E ([1]; dye Blue 1 (Brilliant Blue FCF) 0.001, sequestering agent 0.05 alone, photostabilizer 0): 8.32
Δ E [1, 5]: 1.75
Δ E ([1]; dye Red 227 (Acid Fuchsine D) 0.0001, sequestering agent 0.02 alone, photostabilizer 0): 1.40
Δ E [1, 6]: 1.72
Δ E ([1]; dyes Red 106 (Acid Red) 0.00001 + Yellow 5 (Sunset Yellow FCF) 0.0001, sequestering agent blend amount 0.02, photostabilizer 0): 4.26
Δ E ([1]; dyes Red 227 (Acid Fuchsine D) 0.0001 + Yellow 5 (Sunset Yellow FCF) 0.0001, sequestering agent blend amount 0.02, photostabilizer 0): 1.55
Δ E ([1]; dyes Red 401 (Violanin R) 0.0001 + Blue 1 (Brilliant Blue FCF) 0.00001, sequestering agent blend amount 0.03, photostabilizer 0): 3.02

Further lines, with some results ahead:

Remaining ratio (%) [3, 12]: 98.8%
Remaining ratio (%) [3, 13]: 98.8%
Compound: OCCNc1ccc(NCCO)nn1 [3,6-Bis(2-hydroxyethylamino)pyridazine, 3,6-bis(2-hydroxyethylamino)pyridazine]
Appearance (visual determination) [2, 7]: ◯
Δ E [2, 7]: 1.38
Appearance (visual determination) [2, 8]: ◯
Δ E [2, 8]: 0.63
Appearance (visual determination) [2, 9]: ◯
Δ E [2, 9]: 0.64
Appearance (visual determination) [2, 10]: ◯
Δ E [2, 10]: 0.66
Appearance (visual determination) [2, 11]: ◯
Δ E [2, 11]: 0.47
Appearance (visual determination) [3, 12]: ◯
Appearance (visual determination) [3, 13]: ◯
odor determination [4, 14]: ◯
odor determination [4, 15]: ◯
odor determination [4, 16]: ◯

Remaining ratio (%) [3, 12]: 97.8%
Remaining ratio (%) [3, 13]: 97.8%
Remaining ratio (%) [3, 21]: 95.2%
Remaining ratio (%) [3, 22]: 95.4%
Remaining ratio (%) ([3]; drug salicylic acid 0.1 wt %): 98.2%
Compound: COc1ccc(C(=O)c2ccccc2)c(O)c1 [2-Hydroxy-4-methoxybenzophenone, reference compound]
Appearance (visual determination) [2, 7]: Δ
Δ E [2, 7]: 1.76
Appearance (visual determination) [2, 8]: Δ
Δ E [2, 8]: 0.75
Appearance (visual determination) [2, 9]: Δ
Δ E [2, 9]: 0.71
Appearance (visual determination) [2, 10]: Δ
Δ E [2, 10]: 0.82
Appearance (visual determination) [2, 17]: Δ
Δ E [2, 17]: 1.11
Appearance (visual determination) [2, 18]: Δ
Δ E [2, 18]: 1.26
Appearance (visual determination) [2, 19]: Δ
Δ E [2, 19]: 0.88
Appearance (visual determination) [2, 20]: Δ
Δ E [2, 20]: 0.82
Appearance (visual determination) [2, 11]: ◯
Δ E [2, 11]: 0.52
Appearance (visual determination) [3, 12]: Δ
Appearance (visual determination) [3, 13]: Δ
Appearance (visual determination) [3, 21]: Δ
Appearance (visual determination) [3, 22]: Δ
Appearance (visual determination) ([3]; drug salicylic acid 0.1 wt %): Δ
odor determination [4, 14]: Δ
odor determination [4, 23]: Δ
odor determination ([4]; base perfume Rose, photostabilizer 0.05 wt %): Δ
odor determination ([4]; base perfume Spicy, photostabilizer 0.2 wt %): Δ
odor determination ([4]; base perfume Woody, photostabilizer 0.1 wt %): Δ
odor determination [4, 24]: Δ
odor determination ([4]; natural perfume Lavender oil, photostabilizer 0.1 wt %): Δ
odor determination [4, 15]: Δ
odor determination ([4]; natural perfume Rose oil, photostabilizer 0.05 wt %): Δ
odor determination ([4]; natural perfume Ylang ylang oil, photostabilizer 0.2 wt %): Δ
odor determination ([4]; synthetic perfume Citral, photostabilizer 0.1 wt %): Δ
odor determination [4, 16]: Δ
odor determination ([4]; synthetic perfume Linalool, photostabilizer 0.05 wt %): Δ
odor determination ([4]; synthetic perfume Linalyl acetate, photostabilizer 0.1 wt %): Δ
odor determination [4, 25]: Δ

Δ E ([1]; dyes Red 227 (Acid Fuchsine D) 0.0001 + Yellow 5 (Sunset Yellow FCF) 0.0001, no sequestering agent, photostabilizer blend amount 0.01): 1.12
Δ E ([1]; dyes Red 227 (Acid Fuchsine D) 0.0001 + Yellow 5 (Sunset Yellow FCF) 0.0001, with ethylenediaminetetraacetate trisodium 0.02, photostabilizer blend amount 0.01): 0.68
Compound: Oc1nncc(N2CCCCC2)c1N1CCCCC1 [4,5-Dipipendino-3-hydroxypyridazine]

Δ E ([1]; dyes Red 401 (Violanin R) 0.0001 + Green 3 (Fast Green FCF) 0.00001, no sequestering agent, photostabilizer blend amount 0.02): 1.52
Δ E ([1]; dyes Red 401 (Violanin R) 0.0001 + Green 3 (Fast Green FCF) 0.00001, with sodium metaphosphate 0.03, photostabilizer blend amount 0.02): 0.77
Compound: Oc1nncc(N2CCCCC2)c1N1CCCCC1 [4,5-Dipiperidino-33-hydroxy pyridazine]

Δ E ([1]; dyes Yellow 203 (Quinoline Yellow WS) 0.0001 + Yellow 5 (Sunset Yellow FCF) 0.0001, no sequestering agent, photostabilizer blend amount 0.02): 0.88
Δ E ([1]; dyes Yellow 203 (Quinoline Yellow WS) 0.0001 + Yellow 5 (Sunset Yellow FCF) 0.0001, with sodium metaphosphate 0.01, photostabilizer blend amount 0.02): 0.55
Compound: OCCNc1ccc(NCCO)nn1 [3,6-Bis(2-hydroxyethylamino) pyridazine]
